From patent publication US10865208B2, “ATG7 inhibitors and the uses thereof” (Millennium Pharmaceuticals, Inc., priority 2016, dated 2020)

Molecular target: recombinant human His-ATG7 enzyme (Homo sapiens (Human), UniProt O95352)
Test: ATG7 Enzyme Assay (HTRF/FRET, ATG3-GST and Flag-Gabarap)
Format: biochemical
Conditions: for inhibition at 0.111 µM: Concentration 0.111 μM; for inhibition at 0.111 µM / inhibition at 0.123 µM / inhibition at 0.069 µM: read-out: Percent Inhibition; for inhibition at 0.123 µM: Concentration 0.123 μM; for inhibition at 0.069 µM: Concentration 0.069 μM
Procedure, shortened: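 0.15 nM His-ATG7 was reacted with 5 nM ATG3-GST, 5 nM Flag-Gabarap and 10 μM ATP in HEPES pH 7.5 containing MgCl2, GSH and TCEP for 105 min at 24° C, then stopped with EDTA/KF. Eu-anti-Flag and anti-GST-APC HTRF was read after 2 h. Results are given as single-concentration % inhibition or IC50.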

Sequence of recombinant human His-ATG7 enzyme (O95352 whole entry): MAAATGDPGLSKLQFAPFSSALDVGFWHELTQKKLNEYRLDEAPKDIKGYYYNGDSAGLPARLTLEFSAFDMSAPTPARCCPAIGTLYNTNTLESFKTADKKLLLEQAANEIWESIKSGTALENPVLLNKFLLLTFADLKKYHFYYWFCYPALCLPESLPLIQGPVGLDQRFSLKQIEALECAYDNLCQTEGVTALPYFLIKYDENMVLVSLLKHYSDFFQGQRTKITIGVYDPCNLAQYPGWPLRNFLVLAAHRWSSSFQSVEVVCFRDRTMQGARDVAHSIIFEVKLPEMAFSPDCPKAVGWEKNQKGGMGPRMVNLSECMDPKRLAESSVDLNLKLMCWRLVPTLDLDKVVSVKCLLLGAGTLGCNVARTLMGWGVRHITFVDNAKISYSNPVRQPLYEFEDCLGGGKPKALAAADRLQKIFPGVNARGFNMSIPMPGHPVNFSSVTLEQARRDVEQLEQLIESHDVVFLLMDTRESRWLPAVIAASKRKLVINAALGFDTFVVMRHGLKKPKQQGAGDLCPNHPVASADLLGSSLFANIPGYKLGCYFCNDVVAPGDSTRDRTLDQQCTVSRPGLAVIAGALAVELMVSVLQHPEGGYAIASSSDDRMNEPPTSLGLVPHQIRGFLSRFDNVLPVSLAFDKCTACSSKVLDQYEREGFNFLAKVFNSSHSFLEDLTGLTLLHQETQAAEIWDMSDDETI

SMILES	IC50	inhibition at 0.111 µM	inhibition at 0.123 µM	inhibition at 0.069 µM
COC(C)c1nn([C@@H]2O[C@H](COS(N)(=O)=O)[C@@H](O)[C@H]2O)c2ncnc(N)c12 (mixture of isomers) [Compound I-22, [(2R,3S,4R,5R)-5-{4-amino-3-[(1R)-1-methoxyethyl]-1H-pyrazolo[3,4-d]pyrimidin-1-yl}-3,4-dihydroxytetrahydrofuran-2-yl]methyl Sulfamate and [(2R,3S,4R,5R)-5-{4-amino-3-[(1S)-1-methoxyethyl]-1H-pyrazolo[3,4-d]pyrimidin-1-yl}-3,4-dihydroxytetrahydrofuran-2-yl]methyl Sulfamate]	> 0.5 µM	–	5%	–
Nc1ncnc2c1c(SCC1CC(F)(F)C1)nn2[C@@H]1O[C@H](COS(N)(=O)=O)[C@@H](O)[C@@H]1F [Compound I-97, [(2R,3R,4S,5R)-5-(4-amino-3-{[(3,3-difluorocyclobutyl)methyl]sulfanyl}-1H-pyrazolo[3,4-d]pyrimidin-1-yl)-4-fluoro-3-hydroxytetrahydrofuran-2-yl]methyl sulfamate]	0.02 to 0.05 µM	66%	–	–
Nc1ncnc2c1c(Sc1ccc(Cl)cc1Cl)nn2[C@@H]1O[C@H](COS(N)(=O)=O)[C@@H](O)[C@H]1O [Compound I-34, [(2R,3S,4R,5R)-5-{4-amino-3-[(2,4-dichlorophenyl)sulfanyl]-1H-pyrazolo[3,4-d]pyrimidin-1-yl}-3,4-dihydroxytetrahydrofuran-2-yl]methyl sulfamate]	0.05 to 0.1 µM	–	70%	–
Nc1ncnc2c1c(SC1CNC1)nn2[C@@H]1O[C@H](COS(N)(=O)=O)[C@@H](O)[C@H]1O [Compound I-72, {(2R,3S,4R,5R)-5-[4-amino-3-(azetidin-3-ylsulfanyl)-1H-pyrazolo[3,4-d]pyrimidin-1-yl]-3,4-dihydroxytetrahydrofuran-2-yl}methyl sulfamate]	0.05 to 0.1 µM	–	65%	–
Cn1cc(CSc2nn([C@@H]3O[C@H](COS(N)(=O)=O)[C@@H](O)[C@@H]3F)c3ncnc(N)c23)cn1 [Compound I-145, [(2R,3R,4S,5R)-5-(4-amino-3-{[(1-methyl-1H-pyrazol-4-yl)methyl]sulfanyl}-1H-pyrazolo[3,4-d]pyrimidin-1-yl)-4-fluoro-3-hydroxytetrahydrofuran-2-yl]methyl sulfamate]	0.02 to 0.05 µM	74%	–	–
CSc1nn([C@@H]2O[C@@H](COS(N)(=O)=O)[C@@H](O)[C@H]2O)c2ncnc(N)c12 [Compound I-94, {(2S,3S,4R,5R)-5-[4-amino-3-(methylsulfanyl)-1H-pyrazolo[3,4-d]pyrimidin-1-yl]-3,4-dihydroxytetrahydrofuran-2-yl}methyl Sulfamate]	0.1 to 0.5 µM	28%	–	–
Nc1ncnc2c1c(SC1CCCCC1)nn2[C@@H]1O[C@H](COS(N)(=O)=O)[C@@H](O)[C@@H]1F [Compound I-122, {(2R,3R,4S,5R)-5-[4-amino-3-(cyclohexylsulfanyl)-1H-pyrazolo[3,4-d]pyrimidin-1-yl]-4-fluoro-3-hydroxytetrahydrofuran-2-yl}methyl sulfamate]	0.02 to 0.05 µM	80%	–	–
Nc1ncnc2c1c(SCC(F)(F)F)nn2[C@@H]1O[C@H](COS(N)(=O)=O)[C@@H](O)[C@H]1O [Compound I-83, [(2R,3S,4R,5R)-5-{4-amino-3-[(2,2,2-trifluoroethyl)sulfanyl]-1H-pyrazolo[3,4-d]pyrimidin-1-yl}-3,4-dihydroxytetrahydrofuran-2-yl]methyl sulfamate]	0.02 to 0.05 µM	–	82%	–
Nc1ncnc2c1c(SCCO)nn2[C@@H]1O[C@H](COS(N)(=O)=O)[C@@H](O)[C@H]1O [Compound I-46, [(2R,3S,4R,5R)-5-{4-amino-3-[(2-hydroxyethyl)sulfanyl]-1H-pyrazolo[3,4-d]pyrimidin-1-yl}-3,4-dihydroxytetrahydrofuran-2-yl]methyl sulfamate]	< 0.02 µM	–	88%	–
CC(C)Oc1nn([C@@H]2O[C@H](COS(N)(=O)=O)[C@@H](O)[C@H]2O)c2ncnc(N)c12 [Compound I-7, [(2R,3S,4R,5R)-5-(4-amino-3-isopropoxy-1H-pyrazolo[3,4-d]pyrimidin-1-yl)-3,4-dihydroxytetrahydrofuran-2-yl]methyl sulfamate]	> 0.5 µM	–	–	7%
Nc1ncnc2c1c(SC1CCOC1)nn2[C@@H]1O[C@H](COS(N)(=O)=O)[C@@H](O)[C@@H]1F (mixture of isomers) [Compound I-123, [(2R,3R,4S,5R)-5-{4-amino-3-[(3R)-tetrahydrofuran-3-ylsulfanyl]-1H-pyrazolo[3,4-d]pyrimidin-1-yl}-4-fluoro-3-hydroxytetrahydrofuran-2-yl]methyl sulfamate and [(2R,3R,4S,5R)-5-{4-amino-3-[(3S)-tetrahydrofuran-3-ylsulfanyl]-1H-pyrazolo[3,4-d]pyrimidin-1-yl}-4-fluoro-3-hydroxytetrahydrofuran-2-yl]methyl sulfamate]	0.02 to 0.05 µM	78%	–	–
NC(=O)c1nn([C@@H]2O[C@H](COS(N)(=O)=O)[C@@H](O)[C@H]2O)c2ncnc(N)c12 [Compound I-16, [(2R,3S,4R,5R)-5-(4-amino-3-carbamoyl-1H-pyrazolo[3,4-d]pyrimidin-1-yl)-3,4-dihydroxytetrahydrofuran-2-yl]methyl Sulfamate]	0.1 to 0.5 µM	–	–	22%
Nc1ncnc2c1c(I)nn2[C@@H]1O[C@H](COS(N)(=O)=O)[C@@H](O)[C@H]1O [Compound I-79, [(2R,3S,4R,5R)-5-(4-amino-3-iodo-1H-pyrazolo[3,4-d]pyrimidin-1-yl)-3,4-dihydroxytetrahydrofuran-2-yl]methyl sulfamate]	< 0.02 µM	–	85%	–

Second part, the compound after the results:

IC50	inhibition at 0.111 µM	inhibition at 0.123 µM	inhibition at 0.069 µM	SMILES
0.05 to 0.1 µM	61%	–	–	Nc1ncnc2c1c(I)nn2[C@H]1C[C@H](O)[C@@H](COS(N)(=O)=O)O1 [Compound I-192, [(2R,3S,5R)-5-(4-amino-3-iodo-1H-pyrazolo[3,4-d]pyrimidin-1-yl)-3-hydroxytetrahydrofuran-2-yl]methyl Sulfamate]
0.05 to 0.1 µM	56%	–	–	CN1C(=O)Cc2cc(Sc3nn([C@H]4C[C@H](O)[C@@H](COS(N)(=O)=O)O4)c4ncnc(N)c34)ccc21 [Compound I-185, [(2R,3S,5R)-5-{4-amino-3-[(1-methyl-2-oxo-2,3-dihydro-1H-indol-5-yl)sulfanyl]-1H-pyrazolo[3,4-d]pyrimidin-1-yl}-3-hydroxytetrahydrofuran-2-yl]methyl sulfamate]
0.1 to 0.5 µM	30%	–	–	Nc1ncnc2c1c(Sc1nnc3ccccn13)nn2[C@@H]1O[C@H](COS(N)(=O)=O)[C@@H](O)[C@@H]1F [Compound I-156, {(2R,3R,4S,5R)-5-[4-amino-3-([1,2,4]triazolo[4,3-a]pyridin-3-ylsulfanyl)-1H-pyrazolo[3,4-d]pyrimidin-1-yl]-4-fluoro-3-hydroxytetrahydrofuran-2-yl}methyl sulfamate]
0.1 to 0.5 µM	50%	–	–	Nc1ncnc2c1c(SCc1cc3ccccc3s1)nn2[C@H]1C[C@H](O)[C@@H](COS(N)(=O)=O)O1 [Compound I-204, [(2R,3S,5R)-5-{4-amino-3-[(1-benzothiophen-2-ylmethyl)sulfanyl]-1H-pyrazolo[3,4-d]pyrimidin-1-yl}-3-hydroxytetrahydrofuran-2-yl]methyl sulfamate]
0.1 to 0.5 µM	48%	–	–	Nc1ncnc2c1c(SCC(F)F)nn2[C@H]1C[C@H](O)[C@H](COS(N)(=O)=O)O1 [Compound I-227, [(2S,3S,5R)-5-{4-amino-3-[(2,2-difluoroethyl)sulfanyl]-1H-pyrazolo[3,4-d]pyrimidin-1-yl}-3-hydroxytetrahydrofuran-2-yl]methyl Sulfamate]
0.02 to 0.05 µM	82%	–	–	CC(C#N)Sc1nn([C@@H]2O[C@H](COS(N)(=O)=O)[C@@H](O)[C@@H]2F)c2ncnc(N)c12 (mixture of isomers) [Compound I-149, [(2R,3R,4S,5R)-5-(4-amino-3-{[(1R)-1-cyanoethyl]sulfanyl}-1H-pyrazolo[3,4-d]pyrimidin-1-yl)-4-fluoro-3-hydroxytetrahydrofuran-2-yl]methyl sulfamate and [(2R,3R,4S,5R)-5-(4-amino-3-{[(1S)-1-cyanoethyl]sulfanyl}-1H-pyrazolo[3,4-d]pyrimidin-1-yl)-4-fluoro-3-hydroxytetrahydrofuran-2-yl]methyl sulfamate]
0.02 to 0.05 µM	71%	–	–	CC(Sc1nn([C@@H]2O[C@H](COS(N)(=O)=O)[C@@H](O)[C@@H]2F)c2ncnc(N)c12)C1CC1 (mixture of isomers) [Compound I-157, [(2R,3R,4S,5R)-5-(4-amino-3-{[(1R)-1-cyclopropylethyl]sulfanyl}-1H-pyrazolo[3,4-d]pyrimidin-1-yl)-4-fluoro-3-hydroxytetrahydrofuran-2-yl]methyl sulfamate and [(2R,3R,4S,5R)-5-(4-amino-3-{[(1S)-1-cyclopropylethyl]sulfanyl}-1H-pyrazolo[3,4-d]pyrimidin-1-yl)-4-fluoro-3-hydroxytetrahydrofuran-2-yl]methyl sulfamate]
0.05 to 0.1 µM	60%	–	–	Nc1ncnc2c1c(Sc1ccc(Cl)cn1)nn2[C@H]1C[C@H](O)[C@@H](COS(N)(=O)=O)O1 [Compound I-189, [(2R,3S,5R)-5-{4-amino-3-[(5-chloropyridin-2-yl)sulfanyl]-1H-pyrazolo[3,4-d]pyrimidin-1-yl}-3-hydroxytetrahydrofuran-2-yl]methyl sulfamate]
0.1 to 0.5 µM	50%	–	–	Nc1ncnc2c1c(Sc1ccc3ccccc3c1)nn2[C@H]1C[C@H](O)[C@@H](COS(N)(=O)=O)O1 [Compound I-166, {(2R,3S,5R)-5-[4-amino-3-(2-naphthylsulfanyl)-1H-pyrazolo[3,4-d]pyrimidin-1-yl]-3-hydroxytetrahydrofuran-2-yl}methyl sulfamate]
